The results in this text go back to patent EP0172917A1, “AGENTS FOR TREATING IMMUNODEFICIENCY, METHOD FOR TREATING THEM, AND USE THEREOF” (Yoshitomi Pharmaceutical Industries, Ltd., priority 1984, dated 1985).

Where only a bound is given, the exact number is not on record here.

One data set relates to peritoneal macrophages. The data set is described as follows: Stimulative effect on phagocytosis of macrophages. Format: cell-based, rats. The conditions noted are these: rat peritoneal macrophages. Here is the method: (§1) Effect of Compound (I) on phagocytosis was examined using rat peritoneal leukocytes according to the method of Stossel et al described in Journal of Clinical Investigation, vol. 51, p. 615 (1972).
Casein sodium was injected intraperitoneally into rats. Three days later, peritoneal macrophages were harvested. Phagocytosis was assessed by the same procedures as shown in Experiment 3.

The test system of data set [1] is natural thymotoxic autoantibody. The data set is described as follows: Inhibitory effect on the production of autoantibody (NTA). Format: in vivo, NZB/W F1 mice. As to conditions: 30 mg/kg orally three times every week. As to the method:
To 4 week-old female NZB/W F, mice was orally administered Compound (I) three times every week and, at 7 week-old mice blood was gathered from the eyegrounds and the serum was separated. The detection of natural thymotoxic autoantibody (hereinafter referred to as NTA) was performed by the method of Takeichi et al [Cellular Immunology, vol. 60, p. 181 (1981)].

The subject of a further data set is male dd-strain mice. The data set is described as follows: Acute toxicity in mice (LD50). Format: in vivo. As to conditions: 10080 min. Here is the method:
(§2) Compound (I) was administered orally or intraperitoneally to groups of 8 male Wistar rats weighing about 200 g. After one week, acute toxicity (LD50 value) was determined by Probit method.
LD50 values of Compound (I) in groups of 10 male dd-strain mice weighing 20-25 g were also determined.

Another data set has as its system male Wistar rats. The data set is described as follows: Acute toxicity in rats (LD50, Probit method). Format: in vivo. As to conditions: after one week, 10080 min. Here is the method: as §2
In data set [2] the test system is spontaneous rosette forming cells. The data set is described as follows: Stimulative effect on reduced cell-mediated immunity: spontaneous rosette forming cells in thymus of SHR. The conditions noted are these: for Ratio (%) of S-RFC (mean ± standard error): SHR, control 46.7±2.9; for % increase: S-RFC ratio vs control. It counts as in vivo, spontaneous hypertensive rats. As to the method:
Twenty-four hours after the last administration, thymus was removed and cell suspension was prepared. The numbers of spontaneous rosette forming cells (hereinafter referred to as S-RFC) were measured the method of Takeichi and Boone [Cellular Immunology, vol. 27, p.

The test system of data set [3] is MeHSA-induced DTH. The data set is described as follows: Immunosuppressive effect: MeHSA-induced DTH in higher responder strain. The conditions noted are these: for DTH (mm) (mean ± standard error): BALB/c mice, control 0.96±0.09; for % inhibition: DTH vs control. Format: in vivo, BALB/c mice. As to the method: (§3) Eight week-old female C57BL/6 mice were injected subcutaneously in the back with 0.1 ml of a 0.25% methylated human serum albumin (hereinafter referred to as MeHSA). Compound (I) was administered orally for 4 consecutive days from the day of the sensitization. One hour after the last administration of Compound (I), 0.025 ml of a 0.1% MeHSA solution was injected subcutaneously on the left hind^paw. The thickness of footpad was measured the 24 hours after the injection using a dissecting microscope by the method of Baba et al [Acta Pathology Japan, vol. 27, p. 165 (1977)]. The difference between the thickness of footpad before and after the injection of MeHSA was expressed as the delayed type hypersensitivity (hereinafter referred to as DTH).
Effect of Compound (I) on the MeHSA-induced DTH was examined in 10 week-old female BALB/c mice, higher responder strain to the MeHSA-induced DTH, by the same procedures as described in Experiment 5.

Data set [4] relates to MeHSA-induced DTH. The data set is described as follows: Stimulative effect on cell-mediated immunity: MeHSA-induced delayed type hypersensitivity, footpad thickness. As to conditions: for DTH (mm) (mean ± standard error): C57BL/6 mice, control 0.21±0.02; for % increase: DTH vs control. It counts as in vivo, C57BL/6 mice. As to the method: as §3
In data set [5] the test system is thymus-rossete forming cells (RFC). The data set is described as follows: Stimulative effect on immune response: thymus rosette forming cells after sheep red blood cell immunization. The conditions noted are these: for Ratio (%) of RFC (mean ± standard error): C57BL/6 mice, control 1.06±0.31; for % increase: RFC ratio vs control. Format: in vivo, C57BL/6 mice. As to the method: (§4) Six week-old female C57BL/6 mice were immunized with the intraperitoneal administration of 5 x 10^8 sheep red blood cells. […] On the 4th day after immunization, the numbers of thymus-rossete forming cells (RFC) in mice were assessed by the method of Bach et al [Cellular Immunology, vol. 3, p. […] Viable thymus lymphocytes which attached to four or more sheep red blood cells were determined as RFC. In control group, 0.5% methylcellulose solution was orally administered into mice.

Data set [6] concerns rat peritoneal leukocytes. The data set is described as follows: Stimulative effect on phagocytosis of leukocytes. It counts as cell-based.
Source text: as §1

Data set [7] has as its system thymus-rossete forming cells (RFC). The data set is described as follows: Restorative effect on reduced immune response: thymus RFC in cyclophosphamide-pretreated mice. Format: in vivo, BALB/c mice. The conditions noted are these: for Ratio (%) of RFC (mean ± standard error): BALB/c mice; for % decrease: RFC ratio vs control. As to the method:
as §4
The same procedures as shown in Experiment 1 were performed except that six week-old female BALB/c mice were immunized with 5 x 10^8 sheep red blood cells and 20 mg/kg cyclophosphamide was orally administered to mice the day before and on immunization.

Turning to `CCN(CC)CCN1CCC2(CC1)SCC(=O)N2c1ccccc1.Cl.Cl.O` [Compound (I), 8-(2-diethylaminoethyl)-3-oxo-4-phenyl-l-thia-4,8-diazaspiro-[4.5]decane dihydrochloride monohydrate], the “% increase of phagocytosis” value in the data set with peritoneal macrophages (10 µM) turned out to be 12.5%; with peritoneal macrophages (100 µM), 30.6%; in [6] (10 μM), 27.1%; in data set [6] (100 μM) it was 61.4%. Also, the “NTA (%) (mean ± standard error)” value is 9.5±0.6 % in data set [1] (dilution of serum 64, control 28.0±0.8) and 8.7±0.5 % in data set [1] (dilution of serum 128, control 20.3±1.1). Further, the LD50 – broadly, the dose at which mortality reaches 50% – with male dd-strain mice (intraperitoneal) is 474 mg/kg; with male dd-strain mice (oral), 1,841 mg/kg; with male Wistar rats (intraperitoneal) it was 827 mg/kg; in the data set with male Wistar rats (oral), >8,000 mg/kg. In addition, the “Ratio (%) of S-RFC (mean ± standard error)” value in [2] (25 mg/kg orally for 20 days) amounted to 55.0±5.2%; in data set [2] (100 mg/kg orally for 20 days) it was 57.8±3.6 %. For the same compound, the “% increase” value in [2] (25 mg/kg orally) stood at 18%; in data set [2] (100 mg/kg orally), 24%; with MeHSA-induced DTH [4] (10 mg/kg orally), 5%; with MeHSA-induced DTH [4] (100 mg/kg orally), 100%; with MeHSA-induced DTH [4] (300 mg/kg orally) it was 57%; in [5] (3 mg/kg orally), 403%. Also, the “% increase” value in data set [5] (30 mg/kg orally) was determined as 492%. Besides, the “DTH (mm) (mean ± standard error)” value is 0.91±0.04 mm in the data set on MeHSA-induced DTH [3] (3 mg/kg orally); 0.77±0.03 mm with MeHSA-induced DTH [3] (30 mg/kg orally); 0.71±0.04 mm in the data set with MeHSA-induced DTH [3] (300 mg/kg orally); 0.22±0.02 mm in the data set on MeHSA-induced DTH [4] (10 mg/kg orally for 4 days); 0.42±0.03 mm with MeHSA-induced DTH [4] (100 mg/kg orally for 4 days); 0.33±0.03 mm in the data set on MeHSA-induced DTH [4] (300 mg/kg orally for 4 days). Also, the % inhibition (as a rule, the change of the read-out against control, counted positive when it falls) with MeHSA-induced DTH [3] (3 mg/kg orally) is 5%; in the data set on MeHSA-induced DTH [3] (30 mg/kg orally) it was 20%; in the data set with MeHSA-induced DTH [3] (300 mg/kg orally) it was 36%. In addition, the “Ratio (%) of RFC (mean ± standard error)” value is recorded as 5.33±0.99 % in [5] (3 mg/kg orally for 4 days); 6.28±1.27 % in data set [5] (30 mg/kg orally for 4 days); 1.78±0.80% in data set [7] (Compound (I) 10 mg/kg orally with cyclophosphamide 20 mg/kg); 3.86±0.52 % in [7] (Compound (I) 30 mg/kg orally with cyclophosphamide 20 mg/kg); 5.26±0.64 % in data set [7] (Compound (I) 100 mg/kg orally with cyclophosphamide 20 mg/kg). Further, the “% decrease” value in data set [7] (Compound (I) 10 mg/kg with cyclophosphamide 20 mg/kg) turned out to be 74%; in data set [7] (Compound (I) 30 mg/kg with cyclophosphamide 20 mg/kg) it was 43%; in data set [7] (Compound (I) 100 mg/kg with cyclophosphamide 20 mg/kg), 23%.
In the case of `O=P1(N(CCCl)CCCl)NCCCO1` (stereo not drawn) [Cyclophosphamide, cyclophosphamide, reference compound], the “% decrease” value in data set [7] (cyclophosphamide 20 mg/kg alone) is reported as 79%; in [7] (cyclophosphamide 20 mg/kg alone, listed as cyclophosphamide), “about 79%”. In addition, in [7] (cyclophosphamide 20 mg/kg orally alone, control 6.81±1.38), the “Ratio (%) of RFC (mean ± standard error)” value was 1.14±0.63%.
